How the values were obtained:
mAChR M1 = mAChR M1 (Homo sapiens, UniProt P11229); assay: In vitro cellular calcium flux assay, positive allosteric modulation of mAChR M1; assay type: cell-based; conditions: BHK cells expressing mAChR M1; EC20 carbachol; Examples 76-80 and 82-89 slightly modified procedure
How it was run: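 Baby hamster kidney cells stably expressing human mAChR M1, loaded with Calcium 4 dye in HBSS/20 mM HEPES/2.5 mM probenecid for 30 min at 37 °C. An 11-point 1-in-3 compound dilution series was added and calcium rise read as fluorescence; positive allosteric modulator pEC50 and antagonist pIC50 derived.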

mAChR M2 = mAChR M2 (Homo sapiens (Human), UniProt P08172); assay: In vitro cellular calcium flux assay, PAM, NAM and agonist modes, mAChR M2; assay type: cell-based
Chain of mAChR M2 (P08172 whole entry): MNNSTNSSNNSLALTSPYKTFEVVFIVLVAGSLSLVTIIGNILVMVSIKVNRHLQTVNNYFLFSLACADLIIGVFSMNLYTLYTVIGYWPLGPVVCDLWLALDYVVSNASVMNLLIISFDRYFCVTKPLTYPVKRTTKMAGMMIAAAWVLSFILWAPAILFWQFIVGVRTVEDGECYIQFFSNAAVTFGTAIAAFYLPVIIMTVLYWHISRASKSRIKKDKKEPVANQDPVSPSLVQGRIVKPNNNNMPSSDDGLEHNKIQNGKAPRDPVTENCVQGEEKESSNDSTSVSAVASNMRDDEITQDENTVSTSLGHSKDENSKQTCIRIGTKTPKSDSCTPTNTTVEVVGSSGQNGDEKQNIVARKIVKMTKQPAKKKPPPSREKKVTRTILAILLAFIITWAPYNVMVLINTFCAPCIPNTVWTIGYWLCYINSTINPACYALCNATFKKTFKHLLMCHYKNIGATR
Protocol: (§1) Baby hamster kidney cells stably expressing human or rat mAChR M1 to M5 were utilised for primary and selectivity profiling activities. mAChR M2 and M4 cell lines also stably expressed the chimeric Gαqi5 G-protein.
(§2) Human mAChR M1, M3, M5 and rat M1 cells were grown in low glucose Dulbecco's Modified Eagle's Medium (DMEM) medium plus heat inactivated 10% fetal bovine serum (HI FBS) and 500 μg/ml hygromycin B^1. Human mAChR M2 and M4 cells were maintained as above with^2 the addition of 500 μg/ml G418 to the media. Cells were maintained in culture at 37° C./5% CO2 and passaged twice weekly by treatment with 0.05% Trypsin/EDTA detachment solution, centrifugation (200 g, 5 min) and re-suspension in fresh media. Following cell expansion, cells were cryopreserved at −80° C. by treatment with 0.05% Trypsin/EDTA detachment solution, centrifugation (200 g, 5 min) and re-suspension of the pellet in freezing media (90% HI FBS/10% DMSO^3) at 15E6 cells/ml^4.
(§3) Prior to assaying, cells were prepared by thawing at 37° C. in a water bath, centrifugation (200 g, 5 min) and re-suspension of the pellet in fresh media. 15000 cells per well were seeded in black, clear bottomed 384-well Greiner Bio-One plates in plating medium (DMEM/10% HI FBS) and incubated overnight at 37 C/5% CO2.
(§4) On the day of the assay, media was removed from each well and replaced with 50 μl^5 assay buffer (HBSS with 20 mM HEPES and 2.5 mM Probenecid) containing the calcium indicator, Calcium 4 (Molecular Devices). Cells were then incubated at 37° C./5% CO2 for 30 min and at room temperature.
(§5) Compound preparation was carried out by generation of 11-point, 1 in 3 serial dilution concentration response curves in 100% DMSO. Compound was then diluted 1 in 65^6 with assay buffer (HBSS with 20 mM HEPES and 2.5 mM Probenecid) prior to the addition of 10 ul^7 to the cells using a Tetra fluorometric imaging plate reader (Molecular Devices)^8. Compound driven increases in intracellular calcium flux was measured as an increase in fluorescence (494Ex, 516Em)^9.
(§6) Positive allosteric modulator pEC50 values and antagonist pIC50 values for each compound were then determined. […] The points of modification and the alternate reagents, concentrations or equipment employed in these examples were: ^1200 μg/ml hygromycin B; ^2G418 not added; ^3CELLBANKER 1; ^410E6; ^5 40 μl; ^6 1 in 99; ^7 20 μl; ^8FDSS6000 (Hamamatsu Photonics); ^9(480Ex, 540Em); ^10Spotfire (TIBCO).
(§7) Certain compounds were tested in PAM, NAM and agonist modes against mAChR M2, M3, M4 and M5.

mAChR M3 = mAChR M3 (Homo sapiens (Human), UniProt P20309); assay: In vitro cellular calcium flux assay, PAM, NAM and agonist modes, mAChR M3; assay type: cell-based
Chain of mAChR M3 (P20309 whole entry, looked up): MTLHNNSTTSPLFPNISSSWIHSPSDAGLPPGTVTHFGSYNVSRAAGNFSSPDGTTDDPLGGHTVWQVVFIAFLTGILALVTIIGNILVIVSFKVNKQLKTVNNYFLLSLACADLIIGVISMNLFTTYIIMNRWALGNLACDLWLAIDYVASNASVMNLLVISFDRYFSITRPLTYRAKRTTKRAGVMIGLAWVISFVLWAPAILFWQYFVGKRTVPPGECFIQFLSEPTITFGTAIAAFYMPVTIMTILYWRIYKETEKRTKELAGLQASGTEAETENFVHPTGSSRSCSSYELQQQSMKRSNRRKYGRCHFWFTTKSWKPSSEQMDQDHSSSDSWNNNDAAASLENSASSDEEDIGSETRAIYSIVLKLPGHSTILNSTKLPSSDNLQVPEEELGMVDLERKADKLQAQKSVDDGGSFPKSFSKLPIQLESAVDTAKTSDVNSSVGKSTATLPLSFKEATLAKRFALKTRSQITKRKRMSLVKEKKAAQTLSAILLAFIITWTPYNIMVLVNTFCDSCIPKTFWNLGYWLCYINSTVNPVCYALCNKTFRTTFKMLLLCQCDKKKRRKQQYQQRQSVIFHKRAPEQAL
Protocol: as §1, §2, §3, §4, §5, §6, §7

mAChR M4 = mAChR M4 (Homo sapiens (Human), UniProt P08173); assay: In vitro cellular calcium flux assay, PAM, NAM and agonist modes, mAChR M4; assay type: cell-based
Chain of mAChR M4 (P08173 whole entry): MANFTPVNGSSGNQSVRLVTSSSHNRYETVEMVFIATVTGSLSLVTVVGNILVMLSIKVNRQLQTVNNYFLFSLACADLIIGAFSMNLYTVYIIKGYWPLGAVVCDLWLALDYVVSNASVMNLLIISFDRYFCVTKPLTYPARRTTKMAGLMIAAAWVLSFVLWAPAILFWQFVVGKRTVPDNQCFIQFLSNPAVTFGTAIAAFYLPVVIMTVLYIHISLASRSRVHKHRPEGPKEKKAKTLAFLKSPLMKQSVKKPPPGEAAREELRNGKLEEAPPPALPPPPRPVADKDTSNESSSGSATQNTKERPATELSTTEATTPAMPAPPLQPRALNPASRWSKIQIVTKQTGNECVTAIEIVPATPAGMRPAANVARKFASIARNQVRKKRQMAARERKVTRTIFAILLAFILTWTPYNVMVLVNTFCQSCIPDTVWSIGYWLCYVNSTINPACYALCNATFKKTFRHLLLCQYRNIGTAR
Protocol: as §1, §2, §3, §4, §5, §6, §7

mAChR M5 = mAChR M5 (Homo sapiens (Human), UniProt P08912); assay: In vitro cellular calcium flux assay, PAM, NAM and agonist modes, mAChR M5; assay type: cell-based
Chain of mAChR M5 (P08912 whole entry): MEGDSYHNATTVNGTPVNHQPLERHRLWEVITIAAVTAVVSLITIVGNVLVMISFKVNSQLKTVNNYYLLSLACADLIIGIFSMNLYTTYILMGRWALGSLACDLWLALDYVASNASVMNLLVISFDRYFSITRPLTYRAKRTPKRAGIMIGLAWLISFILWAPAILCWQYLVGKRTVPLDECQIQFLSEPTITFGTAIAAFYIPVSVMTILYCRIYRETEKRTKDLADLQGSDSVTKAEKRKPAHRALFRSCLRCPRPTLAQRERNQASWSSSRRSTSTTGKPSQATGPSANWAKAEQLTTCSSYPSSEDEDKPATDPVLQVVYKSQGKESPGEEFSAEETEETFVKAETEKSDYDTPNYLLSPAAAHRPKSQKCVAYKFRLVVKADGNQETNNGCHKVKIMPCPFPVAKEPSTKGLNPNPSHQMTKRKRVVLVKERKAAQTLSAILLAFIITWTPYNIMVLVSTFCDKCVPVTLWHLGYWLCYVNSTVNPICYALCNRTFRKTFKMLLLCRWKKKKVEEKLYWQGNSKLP
Protocol: as §1, §2, §3, §4, §5, §6, §7

Male Lister Hooded rats = assay: Novel Object Recognition test; assay type: in vivo; conditions: rat, 24 h delay
Protocol: The Novel Object Recognition test (NOR) is based on the greater spontaneous exploration of a novel object, compared with a familiar object, observed in rodents (Behav. Brain Res., 1988, 31(1), 47-59). […] Therefore, it is considered to be analogous to recognition memory tests used in human clinical testing. Male Lister Hooded rats were assessed for object recognition in a test apparatus comprising of a perspex test arena housed within a sound attenuating chamber. Video images of behaviour were captured by digital camera and recorded to a computer. Rats were habituated to the test arena on four occasions prior to testing. Habituation sessions replicated the test day sequence exactly with the exception of object presentation. On test days, each rat was placed into the test arena and 3 minutes later the rat was presented with two identical objects (plastic shapes). The time spent actively exploring the objects during a 3-minute test period (T1) was recorded. Following T1 rats were returned to home cages. After 24 hours each rat was again placed in the test arena and 3 minutes later was presented with one of the now familiar objects and a novel object, and again the time spent actively exploring the objects during a 3-minute test period (T2) was recorded. The presentation order and position of objects (left/right) was randomised within groups to prevent bias from order or place preference. Objects were cleaned with 70% ethanol solution between trials to remove any olfactory/taste cues. Compounds were administered by oral gavage at an appropriate pre-treatment time prior to T1 and T2 (n=12) at dosage ranges between 0.03 and 3 mg/kg. In some experiments the 5-HT6 receptor antagonist N-(3,5-dichloro-2-methoxyphenyl)-4-methoxy-3-(piperazin-1-yl)benzenesulfonamide (CAS 402713-80-8) (10 mg/kg p.o.; 4 h pre-treatment time) was included as a positive control. Vehicle controls (1% methylcellulose in water) were included for comparison in each study. Results are expressed as the d2 index (difference in time spent exploring novel and familiar objects/total object exploration in T2).

Chain of mAChR M1 (P11229 whole entry, looked up): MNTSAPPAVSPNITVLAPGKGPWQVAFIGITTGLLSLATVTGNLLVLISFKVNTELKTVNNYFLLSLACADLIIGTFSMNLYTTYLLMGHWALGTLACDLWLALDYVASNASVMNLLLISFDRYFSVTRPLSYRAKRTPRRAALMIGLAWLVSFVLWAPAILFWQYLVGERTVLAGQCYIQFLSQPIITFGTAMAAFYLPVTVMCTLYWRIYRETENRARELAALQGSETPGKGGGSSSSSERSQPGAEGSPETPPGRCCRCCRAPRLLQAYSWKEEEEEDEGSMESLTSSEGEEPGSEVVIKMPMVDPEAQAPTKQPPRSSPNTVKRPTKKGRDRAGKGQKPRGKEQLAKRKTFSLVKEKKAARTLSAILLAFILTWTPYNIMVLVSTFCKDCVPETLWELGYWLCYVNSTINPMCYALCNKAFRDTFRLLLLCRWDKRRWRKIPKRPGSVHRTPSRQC

SMILES	pEC50 for positive allosteric modulation (mAChR M1)	further results
O=C(NC1CCC(F)(F)C[C@@H]1O)c1cn(Cc2ccc(F)cc2)c2cccnc12 (single isomer, unassigned) [Example 34, N-(trans-4,4-Difluoro-2-hydroxycyclohexyl)-1-(4-fluorobenzyl)-1H-pyrrolo[3,2-b]pyridine-3-carboxamide]	6.9	EC50 (mAChR M2): > 10 µM; EC50 (mAChR M3): > 10 µM; EC50 (mAChR M4): > 10 µM; EC50 (mAChR M5): > 10 µM; d2 index [mean ± SEM] (Male Lister Hooded rats; 0.1 mg/kg p.o.): [0.08 ± 0.08]; d2 index [mean ± SEM] (Male Lister Hooded rats; 0.3 mg/kg p.o.): [0.24 ± 0.05]*; d2 index [mean ± SEM] (Male Lister Hooded rats; 1 mg/kg p.o.): [0.23 ± 0.06]*
Cc1cc(Cn2cc(C(=O)N[C@H]3CCCC[C@@H]3O)c3ncccc32)ccc1F [Example 6, 1-(4-Fluoro-3-methylbenzyl)-N-((1S,2S)-2-hydroxycyclohexyl)-1H-pyrrolo[3,2-b]pyridine-3-carboxamide]	6.7	EC50 (mAChR M2): > 10 µM; EC50 (mAChR M3): > 10 µM; EC50 (mAChR M4): > 10 µM; EC50 (mAChR M5): > 10 µM; d2 index [mean ± SEM] (Male Lister Hooded rats; 0.3 mg/kg p.o.): [0.11 ± 0.09]; d2 index [mean ± SEM] (Male Lister Hooded rats; 1 mg/kg p.o.): [0.27 ± 0.08]*; d2 index [mean ± SEM] (Male Lister Hooded rats; 3 mg/kg p.o.): [0.36 ± 0.09]**
O=C(N[C@@H]1CCOC[C@H]1O)c1cn(Cc2ccc(F)cc2)c2c(Cl)ccnc12 [Example 89, 7-Chloro-1-(4-fluorobenzyl)-N-((3S,4R)-3-hydroxytetrahydro-2H-pyran-4-yl)-1H-pyrrolo[3,2-b]pyridine-3-carboxamide]	6.6	–
O=C(N[C@H]1CCCC[C@@H]1O)c1cn(Cc2ccc(C(F)(F)F)cc2)c2cccnc12 [Example 90, N-((1S,2S)-2-hydroxycyclohexyl)-1-(4-(trifluoromethyl)benzyl)-1H-pyrrolo[3,2-b]pyridine-3-carboxamide]	6.6	–
COc1cc(Cn2cc(C(=O)N[C@H]3CCCC[C@@H]3O)c3ncccc32)ccc1F [Example 91, 1-(4-fluoro-3-methoxybenzyl)-N-((1S,2S)-2-hydroxycyclohexyl)-1H-pyrrolo[3,2-b]pyridine-3-carboxamide]	6.3	–
COc1ccc(Cn2cc(C(=O)N[C@H]3CCCC[C@@H]3O)c3ncccc32)c(F)c1 [Example 92, 1-(2-fluoro-4-methoxybenzyl)-N-((1S,2S)-2-hydroxycyclohexyl)-1H-pyrrolo[3,2-b]pyridine-3-carboxamide]	6.4	–
COc1ccc(Cn2cc(C(=O)N[C@H]3CCCC[C@@H]3O)c3ncccc32)cc1 [Example 93, N-((1S,2S)-2-hydroxycyclohexyl)-1-(4-methoxybenzyl)-1H-pyrrolo[3,2-b]pyridine-3-carboxamide]	6.9	–
O=C(N[C@H]1CCCC[C@@H]1O)c1cn(Cc2cccc(C(F)(F)F)c2)c2cccnc12 [Example 95, N-((1S,2S)-2-hydroxycyclohexyl)-1-(3-(trifluoromethyl)benzyl)-1H-pyrrolo[3,2-b]pyridine-3-carboxamide]	6.1	–
Cc1cccc(Cn2cc(C(=O)N[C@H]3CCCC[C@@H]3O)c3ncccc32)c1 [Example 96, N-((1S,2S)-2-hydroxycyclohexyl)-1-(3-methylbenzyl)-1H-pyrrolo[3,2-b]pyridine-3-carboxamide]	6.7	–
Cc1ccc(Cn2cc(C(=O)N[C@H]3CCCC[C@@H]3O)c3ncccc32)c(F)c1 [Example 97, 1-(2-fluoro-4-methylbenzyl)-N-((1S,2S)-2-hydroxycyclohexyl)-1H-pyrrolo[3,2-b]pyridine-3-carboxamide]	6.9	–
Cc1ccnc2c(C(=O)N[C@H]3CCCC[C@@H]3O)cn(Cc3cc(F)ccc3F)c12 [Example 98, 1-(2,5-difluorobenzyl)-N-((1S,2S)-2-hydroxycyclohexyl)-7-methyl-1H-pyrrolo[3,2-b]pyridine-3-carboxamide]	7.0	–
O=C(N[C@H]1CCCC[C@@H]1O)c1cn(Cc2ccc(OC(F)(F)F)cc2)c2c(Cl)ccnc12 [Example 99, 7-chloro-N-((1S,2S)-2-hydroxycyclohexyl)-1-(4-(trifluoromethoxy)benzyl)-1H-pyrrolo[3,2-b]pyridine-3-carboxamide]	6.7	–
Cc1ccnc2c(C(=O)N[C@H]3CCCC[C@@H]3O)cn(Cc3ccc(OC(F)(F)F)cc3)c12 [Example 100, N-((1S,2S)-2-hydroxycyclohexyl)-7-methyl-1-(4-(trifluoromethoxy)benzyl)-1H-pyrrolo[3,2-b]pyridine-3-carboxamide]	6.8	–
Cc1ccnc2c(C(=O)N[C@H]3CCCC[C@@H]3O)cn(Cc3cc(F)cc(F)c3)c12 [Example 101, 1-(3,5-difluorobenzyl)-N-((1S,2S)-2-hydroxycyclohexyl)-7-methyl-1H-pyrrolo[3,2-b]pyridine-3-carboxamide]	7.0	–
COc1cccc(Cn2cc(C(=O)N[C@H]3CCCC[C@@H]3O)c3ncccc32)c1F [Example 102, 1-(2-fluoro-3-methoxybenzyl)-N-((1S,2S)-2-hydroxycyclohexyl)-1H-pyrrolo[3,2-b]pyridine-3-carboxamide]	6.4	–
COc1ccnc2c(C(=O)N[C@H]3CCCC[C@@H]3O)cn(Cc3cccc(F)c3F)c12 [Example 104, 1-(2,3-difluorobenzyl)-N-((1S,2S)-2-hydroxycyclohexyl)-7-methoxy-1H-pyrrolo[3,2-b]pyridine-3-carboxamide]	6.3	–
COc1ccc(Cn2cc(C(=O)N[C@H]3CCCC[C@@H]3O)c3nccc(OC)c32)cc1 [Example 105, N-((1S,2S)-2-hydroxycyclohexyl)-7-methoxy-1-(4-methoxybenzyl)-1H-pyrrolo[3,2-b]pyridine-3-carboxamide]	6.7	–
